The record followed here is US20080194590A1, “4-Piperazinylthieno [2,3-D] Pyrimidine Compounds as Platelet Aggregation Inhibitors” (Pfizer Inc, priority 2005, published 2008).

For assay [1], the target named is T1, P2Y12 receptor (Homo sapiens, UniProt Q9H244). The experiment in a line: Inhibition of [33P]2MeS-ADP binding to washed human platelet membranes (Assay 1). The arrangement: the P2Y12 receptor, which is found on the surface of platelets; tissue Interstate Blood bank, Memphis, Tenn; host or cells: human platelets from platelet rich plasma. The following applies: for inhibition at 10 µM: highest concentration tested 10 μM; for IC50 / Ki: washed human platelet membranes. The procedure: 1. Inhibition of [^33P]2MeS-ADP Binding to Washed Human Platelet Membranes. The ability of a test compound to bind to the P2Y12 receptor was evaluated in a platelet membrane binding assay. In this competitive binding assay, the test compound competed against a radiolabelled agonist for binding to the P2Y12 receptor, which is found on the surface of platelets. Inhibition of binding of the labeled material was measured and correlated to the amount and potency of the test compound. Data from this assay are presented in Table F. Platelet rich plasma (“PRP”) was obtained from the Interstate Blood bank, Memphis, Tenn. Platelet rich plasma was prepared from blood units collected in ACD ((prepared by (1) combining: 2.5 g sodium citrate (Sigma S-4641); 1.5 g citric acid (Sigma C-0706); and, 2.0 g dextrose (Sigma G-7528); (2) bringing pH to 4.5; and (3) adding water to bring volume to 100 mL) and using the light spin protocol; this protocol involves centrifugation at room temperature for approximately 20 minutes at speeds up to 160×g. Platelet rich plasma is supplied in units of approximately 200 ml. Each unit is distributed into four 50 mL polypropylene conical tubes for centrifugation, Blood from each donor is maintained separately.
T1 sequence (Q9H244 whole entry): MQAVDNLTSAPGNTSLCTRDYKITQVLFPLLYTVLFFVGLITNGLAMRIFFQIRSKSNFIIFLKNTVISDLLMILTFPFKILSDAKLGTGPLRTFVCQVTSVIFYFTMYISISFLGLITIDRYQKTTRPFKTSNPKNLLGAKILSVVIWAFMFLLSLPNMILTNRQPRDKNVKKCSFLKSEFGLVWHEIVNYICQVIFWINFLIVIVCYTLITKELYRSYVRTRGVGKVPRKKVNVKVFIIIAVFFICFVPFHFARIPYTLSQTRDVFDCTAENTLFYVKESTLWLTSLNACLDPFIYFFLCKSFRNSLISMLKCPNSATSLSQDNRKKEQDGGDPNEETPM
The 50 mL tubes were centrifuged for 15 minutes at 1100 rpm in Sorvall RT6000D (with H1000B rotor). Internal centrifuge temperature was maintained at approximately room temperature (22-24° C.). This spin pelleted cellular components remaining from the PRP preparation. The supernatant was decanted into fresh 50 mL tubes. To avoid carry over of cellular components following the room temperature centrifugation, approximately 5 mL of PRP was left in the tube and discarded. The tubes were capped and inverted 2-3 times and allowed to stand at room temperature for at least 15 minutes following inversion.
Optionally, a Coulter Counter may be used to count platelets from the resting samples during the resting phase. Normal human platelet counts are expected to range from 200,000 to 400,000 per μL of PRP supernatant.
The 50 mL tubes containing PRP supernatant were centrifuged for 15 minutes at 2300-2400 rpm to loosely pellet the platelets. The supernatant from this spin was decanted immediately into a clean cell culture bottle (Corning bottle) and saved in case further centrifugation was needed. The pellet of each tube was resuspended in 2-4 mL of Wash buffer (pH 6.5) (1 L prepared new daily—134 mM NaCl (Sigma S-5150); 3 mM KCl (Sigma P-9333); 1 mM CaCl2 (JT Baker 1311-01); 2 mM MgCl2 (Sigma M-2670); 5 mM glucose (EM 4074-2); 0.3 mM NaH2PO4 (Sigma S-9638)/12 mM NaHCO3 (J T Baker 3506-01); 5 mM HEPES pH 7.4 (Gibco 12379-012); 0.35% BSA (Sigma A-7906); 330 mg Heparin (bovine lung, Sigma H-4898); and 30 mL of ACD) by repeated gentle aspiration using disposable polypropylene sample pipettes.
Wash buffer (pH 6.5) was added to each tube to bring the volume to approximately 40 mL. Each tube was incubated for at least 15 minutes at 37° C.
The tubes were then centrifuged again for 15 minutes at 2300-2400 rpm to loosely pellet the platelets. The supernatant was decanted and discarded. The pellet was resuspended in 2-4 mL of Assay buffer (pH 7.4) (1 L volume—134 mM NaCl; 3 mM KCl; 1 mM CaCl2; 2 mM MgCl2; 5 mM glucose; 0.3 mM NaH2PO4/12 mM NaHCO3; 5 mM HEPES pH 7.4; and 0.35% BSA) by repeated aspiration using disposable polypropylene sample pipettes.
The pooled platelet preparation was counted using a Coulter Counter. The final concentration of platelets was brought to 1×10^6 per μL using Assay buffer pH 7.4. The platelets were rested for a minimum of 45 minutes at 37° C. before use in the assay.
In one embodiment, the compounds were tested in 96-well microtiter filterplates (Millipore Multiscreen-FB opaque plates, #MAFBNOB50). These plates were used in the assay and pre-wet with 50 μL of Assay buffer pH 7.4 then filtered through completely with a Millipore plate vacuum. […]

For assay [2], the target named is T1, P2Y12 receptor. Briefly: Human P2Y12 recombinant cell membrane binding assay with 33P 2MeS-ADP (Assay 3). The arrangement: expressed in transfected cells; host or cells: HEK cells. The following applies: for IC50 / Ki: HEK cell membranes expressing P2Y12, multiple lines = multiple runs; for inhibition at 10 µM / [33P]-2MeS-ADP Binding to Recombinant Human P2Y12 Membranes (Assay 3) % Inhibition: highest concentration tested 10 μM; for inhibition at 10 µM: read-out: [33P]-2MeS-ADP Binding to Recombinant Human P2Y12 Membranes (Assay 3) % Inhibition. As to the method: 3. Human P2Y12 Recombinant Cell Membrane Binding Assay with ^33P 2MeS-ADP.
The ability of a test compound to bind to the P2Y12 receptor was evaluated in a recombinant cell membrane binding assay. In this competitive binding assay, the test compound competed against a radiolabelled agonist for binding to the P2Y12 receptor, expressed on the cell membrane. Inhibition of binding of the labeled material was measured and correlated to the amount and potency of the test compound. Data from this assay are presented in Table F. This binding assay is a modification of the procedure in Takasaki, J. et. al, Mol. Pharmacol., 2001, Vol. 60, pg. 432.
HEK cells were transfected with the pDONR201P2Y12 vector and cultured in MEM with GlutaMAX I, Earle's salts, 25 mM HEPES (Gibco # 42360-032) containing 10% dialyzed FBS (Gibco # 26400-044), 100 μM nonessential amino acids (Gibco # 11140-050), 1 mM sodium pyruvate (Gibco # 11360-070), 0.05% geneticin (Gibco #10131-027), 3 μg/mL blasticidin (Fluka brand from Sigma # 15205), and 0.5 μg/mL puromycin (Sigma # P-8833).
Confluent cells were washed once with cold DPBS (Gibco # 14190-136). Fresh DPBS was added and the cells were scraped and centrifuged at 500×g for 5 minutes at 4° C. The cell pellets were resuspended in TEE buffer (25 mM Tris, 5 mM EDTA, 5 mM EGTA) containing 1 protease inhibitor cocktail tablet (Roche # 1 873 580) per 50 mL (called TEE+Complete) and can be flash frozen at this point.
In one embodiment, frozen cell pellets were used to prepare the membranes. In that embodiment, the frozen cell pellets were thawed on ice. In another embodiment, cell pellets may be used without flash freezing before moving on to the next step.
Cell pellets were resuspended in TEE buffer+Complete and homogenized in a glass dounce for 12 strokes. The cell suspension was centrifuged at 500×g for 5 minutes at 4° C. The supernatant was saved and centrifuged at 20,000×g for 20 minutes at 4° C. This supernatant was discarded and the cell pellet resuspended in TEE buffer+Complete and homogenized in a glass dounce for 12 strokes. This suspension was centrifuged at 20,000×g for 20 minutes at 4° C. and the supernatant discarded. The pellet was resuspended in assay buffer (50 mM Tris, 100 mM NaCl, 1 mM EDTA) containing one protease inhibitor cocktail tablet per 50 mL, and can be flash frozen as 1 mL aliquots at this point.
Dry compounds were diluted as 10 mM DMSO stocks and tested in a seven-point, three-fold dilution series run in triplicate beginning at 10 μM, final concentration. A 1 mM DMSO intermediate stock was made in a dilution plate and from this the seven dilutions were made to 5× the final concentration in assay buffer containing 0.02% BSA.
To a polypropylene assay plate (Costar # 3365) the following were added: a) 30 μL of assay buffer containing one protease inhibitor cocktail tablet per 50 mL; b) 30 μL of 1 nM ^33P 2MeS-ADP made in assay buffer containing 0.02% BSA and 12.5 mg/mL ascorbic acid; 30 μL of cold 1.5 μM 2MeS-ADP for the positive control wells, or assay buffer containing 0.02% BSA and 12.5 mg/mL ascorbic acid for the negative control wells, or 5× drug dilution; and 60 μL of 1 ug/well membranes.
The plates were incubated at room temperature for 1 hour. The reaction was stopped using a cell harvester to transfer the reaction mixture onto GF/B UniFilter plates (Perkin Elmer # 6005177), and washed three times with wash buffer (50 mM Tris), filtering between each wash. The filter plates were dried for approximately 20 minutes in an oven at 50° C. Back seals were adhered to the filter plates and 25 uL of Microscint 20 scintillation fluid (Perkin Elmer # 6013621) were added. The filter plates were sealed, shaken for 30 minutes, and counted on a Top Count. Data were analyzed using a four-parameter curve fit with a fixed minimum and maximum experimentally defined as the average positive and negative controls on each plate, and with a hill slope equal to one.

Where “and” joins values, the source holds several entries; their conditions need not be identical. Equal entries are not always repeated.

Regarding `CCc1cc2c(N3CCN(C(=O)Cc4ccccc4)CC3)nc(NCCCc3ccccc3)nc2s1` [Example 7, 6-Ethyl-4-[4-(phenylacetyl)piperazin-1-yl]-N-(3-phenylpropyl)thieno[2,3-d]pyrimidin-2-amine], at P2Y12 receptor [1], the inhibition at 10 µM is 37.4% and the IC50 was over 10000 nM.

On to `CCc1cc2c(N3CCN(C(=O)Cc4ccccc4)CC3)nc(NCc3ccco3)nc2s1` [Example 8, 6-Ethyl-N-(2-furylmethyl)-4-[4-(phenylacetyl)piperazin-1-yl]thieno[2,3-d]pyrimidin-2-amine], for which, on P2Y12 receptor [1], the inhibition at 10 µM was determined as 42.2%, the IC50 is 9850 nM and the Ki came out at 9320 nM.

For the compound `CCc1cc2c(N3CCN(C(=O)Cc4ccccc4)CC3)nc(NCCCO)nc2s1` [Example 9, 3-({6-Ethyl-4-[4-(phenylacetyl)piperazin-1-yl]thieno[2,3-d]pyrimidin-2-yl}amino)propan-1-ol], on P2Y12 receptor [1], the inhibition at 10 µM turned out to be 75%, the IC50 turned out to be 3400 nM and the affinity corresponds to a Ki of 3210 nM.

In the case of `CCc1cc2c(N3CCN(C(=O)Cc4ccccc4)CC3)nc(NC3CCCCC3)nc2s1` [Example 10, N-Cyclohexyl-6-ethyl-4-[4-(phenylacetyl)piperazin-1-yl]thieno[2,3-d]pyrimidin-2-amine], at P2Y12 receptor [1], the inhibition at 10 µM came out at 37.3% and the IC50 is over 10000 nM.

On P2Y12 receptor [1], `CCc1cc2c(N3CCN(C(=O)Cc4ccccc4)CC3)nc(NC3CCCC3)nc2s1` [Example 12, N-Cyclopentyl-6-ethyl-4-[4-(phenylacetyl)piperazin-1-yl]thieno[2,3-d]pyrimidin-2-amine] gave an inhibition at 10 µM of 43.6% and an IC50 of over 10000 nM.

As for `CCOC(CCNc1nc(N2CCN(C(=O)c3ccc(-c4ccccc4)cc3)CC2)c2cc(CC)sc2n1)OCC` [Example 22, 4-[4-(1,1′-Biphenyl-4-ylcarbonyl)piperazin-1-yl]-N-(3,3-diethoxypropyl)-6-ethylthieno[2,3-d]pyrimidin-2-amine], at P2Y12 receptor [2], the IC50 is 138 nM, the Ki is 81 nM and the inhibition at 10 µM came to 86%.

For `CCc1cc2c(N3CCN(C(=O)c4ccc(-c5ccccc5)cc4)CC3)nc(NCCC(=O)O)nc2s1` [Example 24, N-{4-[4-(1,1′-Biphenyl-4-ylcarbonyl)piperazin-1-yl]-6-ethylthieno[2,3-d]pyrimidin-2-yl}-beta-alanine], on P2Y12 receptor [2], the IC50 turned out to be 13.2 nM, the Ki stood at 8 nM and the inhibition at 10 µM amounted to 85%.

In the case of `CCc1cc2c(N3CCN(C(=O)c4ccc(-c5ccccc5)cc4)CC3)nc(NCCC(=O)NC(CO)CO)nc2s1` [Example 25, N^3-{4-[4-(1,1′-Biphenyl-4-ylcarbonyl)piperazin-1-yl]-6-ethylthieno[2,3-d]pyrimidin-2-yl}-N˜1˜-[2-hydroxy-1-(hydroxymethyl)ethyl]-beta-alaninamide], on P2Y12 receptor [2], the IC50 stood at 30 nM, the Ki stood at 17 nM and the inhibition at 10 µM came out at 94%.

Take `CCc1cc2c(N3CCN(C(=O)c4ccc(-c5ccccc5)cc4)CC3)nc(NCCN(C)C)nc2s1` [Example 28, N′-{4-[4-(1,1′-biphenyl-4-ylcarbonyl)piperazin-1-yl]-6-ethylthieno[2,3-d]pyrimidin-2-yl}-N,N-dimethylethane-1,2-diamine]: at P2Y12 receptor [2], the half-maximal inhibitory concentration (IC50) is 44 nM and 47 nM; the Ki was 27 nM and 29 nM; the “[33P]-2MeS-ADP Binding to Recombinant Human P2Y12 Membranes (Assay 3) % Inhibition” value was found to be 98.44%; the inhibition at 10 µM worked out at 92.3%.

As for `CCc1cc2c(N3CCN(C(=O)c4cccc(-c5ccccc5)c4)CC3)nc(NC(CO)CO)nc2s1` [Example 32, 2-({4-[4-(1,1′-biphenyl-3-ylcarbonyl)piperazin-1-yl]-6-ethylthieno[2,3-d]pyrimidin-2-yl}amino)propane-1,3-diol], at P2Y12 receptor [2], the IC50 was 96 nM, the Ki is 51 nM and the inhibition at 10 µM is 96.5%.

In the case of `CCc1cc2c(N3CCN(C(=O)CC(F)(F)F)CC3)nc(NC[C@@H](O)CO)nc2s1` [Example 36, (2R)-3-({6-Ethyl-4-[4-(3,3,3-trifluoropropanoyl)piperazin-1-yl]thieno[2,3-d]pyrimidin-2-yl}amino)propane-1,2-diol], at P2Y12 receptor [2], the IC50 is 1050 nM and 1940 nM; the Ki was 557 nM and 1010 nM; the “[33P]-2MeS-ADP Binding to Recombinant Human P2Y12 Membranes (Assay 3) % Inhibition” value turned out to be 70.7%; the inhibition at 10 µM worked out at 75.7%.

As a reminder, the inhibition is the percentage by which the read-out fell short of the control. The term IC50 denotes the concentration that gives 50% inhibition. What is called Ki is a measure of affinity in units of concentration, obtained from inhibition or displacement.
